In ChEMBL document CHEMBL4715880, “Cancer Stem Cell (CSC) Inhibitors in Oncology-A Promise for a Better Therapeutic Outcome: State of the Art and Future Perspectives” (J Med Chem, 2020):

Columns and labels:
[1] = system: MDA-MB-231; assay: Anti-CSC activity against human MDA-MB-231 cells assessed as inhibition of sphere formation at 250 nM by phase-contrast microscopy; format: functional
[2] = system: PC-3; assay: Anti-CSC activity against human PC-3 cells incubated for 1 week by alamarblue staining based soft agar method; format: functional, cell-based; conditions: PC-3, 168 h
[3] = Cytotoxicity against human PBMC by MTT assay; format: tissue-based
[4] = system: MDA-MB-231; assay: Anti-CSC activity against human MDA-MB-231 cells incubated for 48 hrs by MTT assay; format: functional, cell-based; conditions: MDA-MB-231, 48 h
[5] = Selectivity ratio of IC50 for […] to IC50 for human MG-63 cells
[6] = system: MG-63; assay: Cytotoxicity against human MG-63 cells incubated for 48 hrs by CCK-8 assay; format: functional, cell-based; conditions: MG-63, 48 h
[7] = Selectivity ratio of IC50 for human hFOB1.19 cells to IC50 for human MG-63 cells
[8] = system: HOS-TE85; assay: Cytotoxicity against human MNNG/HOS cells incubated for 48 hrs by CCK-8 assay; format: functional, cell-based; conditions: HOS-TE85, 48 h
[9] = system: Homo sapiens; assay: Anti-CSC activity in patient with pSTAT3-positive tumors assessed as overall survival time at 480 mg, po administered bid with interval of 12 hrs; format: functional
[10] = system: MDA-MB-231; assay: Anti-CSC activity against human MDA-MB-231 cells by MTT assay; format: functional, cell-based
[11] = system: DU-145; assay: Anti-CSC activity against human DU-145 cells by MTT assay; format: functional, cell-based
[12] = system: MDA-MB-231; assay: Anti-CSC activity against human MDA-MB-231 cells by soft agar assay; format: functional, cell-based
[13] = system: PC-3; assay: Anti-CSC activity against human PC-3 cells by soft agar assay; format: functional, cell-based
[14] = system: PC-3; assay: Anti-CSC activity against human PC-3 cells by MTT assay; format: functional, cell-based
[15] = system: PC-3; assay: Anti-CSC activity against human PC-3 cells assessed as inhibition of sphere formation at 25 nM by sphere assay relative to control; format: functional
[16] = system: DU-145; assay: Anti-CSC activity against human DU145 cells incubated for 1 week with intermittent feeding of medium after day 3 by alamarblue staining based soft agar method; format: functional, cell-based
[17] = system: PC-3; assay: Anti-CSC activity against human PC-3 cells assessed as inhibition of sphere formation at 2.5 uM by phase-contrast microscopy relative to control; format: functional
[18] = system: T47D; assay: Anti-CSC activity against human T47D cells incubated for 48 hrs by MTT assay; format: functional, cell-based

Compound: O=C(Cn1cc(COc2ccc3ccccc3c2)nn1)Nc1ccc(Cl)cc1
- inhibition at 0.25 µM [1]: > 50%
- IC50 [2]: 12.1 µM
- IC50 [3]: > 100 µM
- IC50 [4]: 1.47 µM

Compound: Oc1ccc(/C=C/c2cc(O)cc(O)c2)cc1 [RESVERATROL]
- Ratio IC50 [5]: >40
- IC50 [6]: 28.6 µM
- Ratio IC50 [7]: >40
- IC50 [8]: 20.6 µM

Compound: CC(=O)c1cc2c(o1)C(=O)c1ccccc1C2=O [NAPABUCASIN]
- Time [9]: 5.1 months

Compound: C=C(C)[C@H](CC=C(C)C)C[C@]12C[C@H](CC=C(C)C)C(C)(C)[C@](CC=C(C)C)(C(=O)C(C(=O)c3ccc(O)c(O)c3)=C1O)C2=O
- IC50 [10]: 2.43 µM
- IC50 [11]: 2.87 µM
- IC50 [12]: 2.13 µM
- IC50 [13]: 3.46 µM
- IC50 [14]: 2.86 µM

Compound: O=C(CCl)Nc1ccc2c(c1)CCC2
- inhibition at 0.025 µM [15]: > 50%
- IC50 [16]: 1.16 µM
- IC50 [4]: 0.73 µM

Compound: O=C(Cn1cc(COc2cccc3ccccc23)nn1)Nc1ccc(Cl)cc1
- IC50 [2]: 2.9 µM
- IC50 [3]: > 100 µM
- IC50 [4]: 2.16 µM
- inhibition at 2.5 µM [17]: 50%

Compound: N#Cc1c(NC(=O)CCl)sc2c1CCCC2
- inhibition at 0.025 µM [15]: > 50%
- IC50 [16]: 0.27 µM
- IC50 [18]: 0.33 µM
